Assay results reported in patent publication US9266892B2, “Fused pyrazoles as FGFR inhibitors” (Incyte Corporation, priority 2012, dated 2016).

Columns and labels:
Assay type in all cases: biochemical
[1] = biological target: T1, FGFR3 (Homo sapiens, UniProt P22607); experiment: FGFR Enzymatic Assay (FRET peptide phosphorylation), FGFR3; details: ATP 140 μM, 25° C. for 1 hr
T1 construct: purchased Millipore
Description: (§1) The inhibitor potency of the Example compounds was measured in an enzyme assay that measures peptide phosphorylation using FRET measurements to detect product formation. Inhibitors were serially diluted in DMSO and a volume of 0.5 μL was transferred to the wells of a 384-well plate. For FGFR3, a 10 μL volume of FGFR3 enzyme (Millipore) diluted in assay buffer (50 mM HEPES, 10 mM MgCl2, 1 mM EGTA, 0.01% Tween-20, 5 mM DTT, pH 7.5) was added to the plate and pre-incubated for 5-10 minutes. Appropriate controls (enzyme blank and enzyme with no inhibitor) were included on the plate. The assay was initiated by the addition of a 10 μL solution containing biotinylated EQEDEPEGDYFEWLE peptide substrate (SEQ ID NO: 1) and ATP (final concentrations of 500 nM and 140 μM respectively) in assay buffer to the wells. The plate was incubated at 25° C. for 1 hr. The reactions were ended with the addition of 10 μL/well of quench solution (50 mM Tris, 150 mM NaCl, 0.5 mg/mL BSA, pH˜7.8, 30 mM EDTA with Perkin Elmer Lance Detection Reagents at 3.75 nM Eu-antibody PY20 and 180 nM APC-Streptavidin). The plate was allowed to equilibrate for 1 hour before scanning the wells on a PheraStar plate reader (BMG Labtech). The enzymes were purchased from Millipore or Invitrogen.
(§2) GraphPad prism3 was used to analyze the data. The IC50 values were derived by fitting the data to the equation for a sigmoidal dose-response with a variable slope. Y=Bottom+(Top−Bottom)/(1+10^((Log IC50−X)*HillSlope)) where X is the logarithm of concentration and Y is the response.

[2] = biological target: T2, FGFR1 (Homo sapiens, UniProt P11362); experiment: FGFR Enzymatic Assay (FRET peptide phosphorylation), FGFR1; details: FGFR1 0.02 nM, ATP 210 μM
T2 construct: purchased Millipore or Invitrogen
T2 sequence (P11362 22-822): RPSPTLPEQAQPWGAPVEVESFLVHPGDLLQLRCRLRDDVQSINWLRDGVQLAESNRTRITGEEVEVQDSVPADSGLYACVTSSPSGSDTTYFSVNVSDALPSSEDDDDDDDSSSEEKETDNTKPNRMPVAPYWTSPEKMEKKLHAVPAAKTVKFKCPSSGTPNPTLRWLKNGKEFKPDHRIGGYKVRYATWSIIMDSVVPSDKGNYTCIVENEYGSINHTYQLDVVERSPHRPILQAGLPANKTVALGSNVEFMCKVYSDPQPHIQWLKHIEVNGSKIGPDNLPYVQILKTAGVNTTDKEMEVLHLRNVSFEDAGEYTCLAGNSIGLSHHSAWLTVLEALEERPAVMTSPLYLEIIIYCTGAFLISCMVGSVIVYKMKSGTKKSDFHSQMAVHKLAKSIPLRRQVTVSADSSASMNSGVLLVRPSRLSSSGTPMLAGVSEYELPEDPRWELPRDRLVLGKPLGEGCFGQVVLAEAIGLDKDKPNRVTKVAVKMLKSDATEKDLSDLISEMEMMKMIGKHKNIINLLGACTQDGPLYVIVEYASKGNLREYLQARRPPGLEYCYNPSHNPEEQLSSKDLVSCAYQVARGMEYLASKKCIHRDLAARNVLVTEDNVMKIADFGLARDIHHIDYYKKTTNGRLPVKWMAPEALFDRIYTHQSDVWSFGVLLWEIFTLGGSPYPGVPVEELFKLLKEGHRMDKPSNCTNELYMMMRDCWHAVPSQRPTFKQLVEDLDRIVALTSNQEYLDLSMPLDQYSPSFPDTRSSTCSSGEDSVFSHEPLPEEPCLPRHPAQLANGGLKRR
Description: as §1
(§3) FGFR1 and FGFR2 were measured under equivalent conditions with the following changes in enzyme and ATP concentrations: FGFR1, 0.02 nM and 210 μM, respectively and FGFR2, 0.01 nM and 100 μM, respectively.
as §2

[3] = biological target: T3, FGFR2 (Homo sapiens, UniProt P21802); experiment: FGFR Enzymatic Assay (FRET peptide phosphorylation), FGFR2; details: FGFR2 0.01 nM, ATP 100 μM
T3 construct: purchased Millipore or Invitrogen
T3 sequence (P21802 22-821): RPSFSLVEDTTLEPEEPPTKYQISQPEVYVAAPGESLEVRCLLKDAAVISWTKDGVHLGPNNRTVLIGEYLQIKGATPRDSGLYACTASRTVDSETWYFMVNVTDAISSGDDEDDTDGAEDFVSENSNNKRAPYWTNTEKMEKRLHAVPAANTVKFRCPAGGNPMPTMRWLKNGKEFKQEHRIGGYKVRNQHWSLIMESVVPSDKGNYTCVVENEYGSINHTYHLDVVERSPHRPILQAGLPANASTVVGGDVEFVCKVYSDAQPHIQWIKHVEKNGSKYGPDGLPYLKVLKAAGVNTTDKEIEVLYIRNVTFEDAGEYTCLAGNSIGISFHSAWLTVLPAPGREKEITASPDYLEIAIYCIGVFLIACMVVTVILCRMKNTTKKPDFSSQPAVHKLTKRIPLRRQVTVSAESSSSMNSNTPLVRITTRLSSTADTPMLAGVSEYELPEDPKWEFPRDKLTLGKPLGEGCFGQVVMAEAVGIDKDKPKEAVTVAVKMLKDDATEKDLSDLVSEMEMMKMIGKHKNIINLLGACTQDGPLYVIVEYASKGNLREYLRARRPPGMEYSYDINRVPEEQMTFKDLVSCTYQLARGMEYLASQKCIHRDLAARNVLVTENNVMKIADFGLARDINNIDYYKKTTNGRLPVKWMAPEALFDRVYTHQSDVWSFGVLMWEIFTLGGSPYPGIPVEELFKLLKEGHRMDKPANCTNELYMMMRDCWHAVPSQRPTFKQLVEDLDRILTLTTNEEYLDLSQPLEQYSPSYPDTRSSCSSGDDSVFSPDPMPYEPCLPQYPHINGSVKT
Description: as §1, §3, §2

Measured: IC50

T1 sequence (P22607 23-806): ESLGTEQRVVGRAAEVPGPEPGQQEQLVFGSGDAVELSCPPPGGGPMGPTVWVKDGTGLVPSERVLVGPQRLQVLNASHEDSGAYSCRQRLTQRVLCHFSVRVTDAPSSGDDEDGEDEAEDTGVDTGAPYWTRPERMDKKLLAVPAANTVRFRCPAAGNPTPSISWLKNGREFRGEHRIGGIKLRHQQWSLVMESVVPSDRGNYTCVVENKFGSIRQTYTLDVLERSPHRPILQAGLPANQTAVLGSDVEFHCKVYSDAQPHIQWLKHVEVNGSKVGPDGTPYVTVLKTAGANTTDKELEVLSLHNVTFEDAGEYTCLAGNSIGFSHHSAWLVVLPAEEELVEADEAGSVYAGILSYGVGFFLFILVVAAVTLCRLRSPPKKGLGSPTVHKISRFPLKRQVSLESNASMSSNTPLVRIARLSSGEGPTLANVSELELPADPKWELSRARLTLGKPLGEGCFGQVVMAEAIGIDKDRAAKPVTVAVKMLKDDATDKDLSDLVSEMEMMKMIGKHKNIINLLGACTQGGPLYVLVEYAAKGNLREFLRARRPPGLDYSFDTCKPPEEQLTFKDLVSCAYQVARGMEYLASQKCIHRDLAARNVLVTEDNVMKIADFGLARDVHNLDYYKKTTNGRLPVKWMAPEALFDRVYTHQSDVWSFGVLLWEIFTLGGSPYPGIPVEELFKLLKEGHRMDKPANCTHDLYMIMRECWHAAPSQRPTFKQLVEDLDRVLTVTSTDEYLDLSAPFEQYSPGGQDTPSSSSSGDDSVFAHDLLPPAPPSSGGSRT

COc1cc(OC)c(F)c(-c2ncc3c(-c4ccc5c(c4)CN(C4CCN(C)CC4)C5=O)n[nH]c3n2)c1F [Example 79, 5-[6-(2,6-Difluoro-3,5-dimethoxyphenyl)-1H-pyrazolo[3,4-d]pyrimidin-3-yl]-2-(1-methylpiperidin-4-yl)isoindolin-1-one]
< 100 nM: all assays above

COc1cc(OC)c(F)c(-c2ncc3c(-c4ccc5c(c4)CN(C(C)CO)C5=O)n[nH]c3n2)c1F (stereo not drawn) [Example 81, 5-[6-(2,6-Difluoro-3,5-dimethoxyphenyl)-1H-pyrazolo[3,4-d]pyrimidin-3-yl]-2-(2-hydroxy-1-methylethyl)isoindolin-1-one]
< 100 nM: all assays above

COc1cc(OC)c(F)c(-c2ncc3c(-c4ccc5c(c4)CN(CC(C)O)C5=O)n[nH]c3n2)c1F (stereo not drawn) [Example 82, 5-[6-(2,6-Difluoro-3,5-dimethoxyphenyl)-1H-pyrazolo[3,4-d]pyrimidin-3-yl]-2-(2-hydroxypropyl)isoindolin-1-one]
< 100 nM: all assays above

COc1cc(OC)c(Cl)c(-c2cc3[nH]nc(/C=C/c4cnn(CCO)c4)c3cn2)c1Cl [Example 50, 2-(4-{(E)-2-[6-(2,6-Dichloro-3,5-dimethoxyphenyl)-1H-pyrazolo[4,3-c]pyridin-3-yl]vinyl}-1H-pyrazol-1-yl)ethanol]
< 100 nM: all assays above

COc1cc(OC)c(F)c(-c2cc3[nH]nc(-c4cnn(C)c4)c3cn2)c1F [Example 91, 6-(2,6-Difluoro-3,5-dimethoxyphenyl)-3-(1-methyl-1H-pyrazol-4-yl)-1H-pyrazolo[4,3-c]pyridine]
< 100 nM: all assays above

COc1cc(OC)c(Cl)c(-c2cc3[nH]nc(-c4cnn(CC(=O)N5CCC(OC)C5)c4)c3cn2)c1Cl (stereo not drawn) [Example 45, 6-(2,6-Dichloro-3,5-dimethoxyphenyl)-3-{1-[2-(3-methoxypyrrolidin-1-yl)-2-oxoethyl]-1H-pyrazol-4-yl}-1H-pyrazolo[4,3-c]pyridine]
< 100 nM: all assays above

CCN1CCc2cc(-c3n[nH]c4nc(-c5c(Cl)c(OC)cc(OC)c5Cl)ncc34)ccc2C1=O [Example 10, 6-[6-(2,6-Dichloro-3,5-dimethoxyphenyl)-1H-pyrazolo[3,4-d]pyrimidin-3-yl]-2-ethyl-3,4-dihydroisoquinolin-1(2H)-one]
< 100 nM: all assays above

COc1cc(OC)c(F)c(-c2cc3[nH]nc(-c4ccc5c(c4)CN([C@H]4CC[C@@H](O)CC4)C5=O)c3cn2)c1F [Example 61, 5-[6-(2,6-Difluoro-3,5-dimethoxyphenyl)-1H-pyrazolo[4,3-c]pyridin-3-yl]-2-(cis-4-hydroxycyclohexyl)isoindolin-1-one]
< 100 nM: all assays above

COc1cc(OC)c(Cl)c(-c2cc3[nH]nc(-c4cnn(CC(=O)NC5CC5)c4)c3cn2)c1Cl [Example 38, N-Cyclopropyl-2-{4-[6-(2,6-dichloro-3,5-dimethoxyphenyl)-1H-pyrazolo[4,3-c]pyridin-3-yl]-1H-pyrazol-1-yl}acetamide]
< 100 nM: all assays above

COc1cc(OC)c(Cl)c(-c2cc3[nH]nc(-c4cnn(CC(=O)NC5CCN(C)CC5)c4)c3cn2)c1Cl [Example 42, 2-{4-[6-(2,6-Dichloro-3,5-dimethoxyphenyl)-1H-pyrazolo[4,3-c]pyridin-3-yl]-1H-pyrazol-1-yl}-N-(1-methylpiperidin-4-yl)acetamide]
< 100 nM: all assays above

COc1cc(OC)c(Cl)c(-c2cc3[nH]nc(-c4ccc5c(c4)NC(=O)CO5)c3cn2)c1Cl [Example 30, 6-[6-(2,6-Dichloro-3,5-dimethoxyphenyl)-1H-pyrazolo[4,3-c]pyridin-3-yl]-2H-1,4-benzoxazin-3(4H)-one]
< 100 nM: all assays above

COc1cc(OC)c(F)c(-c2ncc3c(-c4cnn(C)c4)n[nH]c3n2)c1F [Example 87, 6-(2,6-Difluoro-3,5-dimethoxyphenyl)-3-(1-methyl-1H-pyrazol-4-yl)-1H-pyrazolo[3,4-d]pyrimidine]
< 100 nM: all assays above

COc1cc(OC)c(F)c(-c2ncc3c(-c4ccc5c(c4)CC(C(=O)N(C)C)O5)n[nH]c3n2)c1F (single isomer, unassigned) [Example 5, 5-[6-(2,6-Difluoro-3,5-dimethoxyphenyl)-1H-pyrazolo[3,4-d]pyrimidin-3-yl]-N,N-dimethyl-2,3-dihydro-1-benzofuran-2-carboxamide]
< 100 nM: all assays above

COc1cc(OC)c(Cl)c(-c2cc3[nH]nc(-c4ccc(OCC(=O)N(C)C)c(C)c4)c3cn2)c1Cl [Example 29, 2-{4-[6-(2,6-Dichloro-3,5-dimethoxyphenyl)-1H-pyrazolo[4,3-c]pyridin-3-yl]-2-methylphenoxy}-N,N-dimethylacetamide]
< 100 nM: all assays above

COc1cc(OC)c(F)c(-c2ncc3c(-c4ccc5c(c4)CN(CCN(C)C)C5=O)n[nH]c3n2)c1F [Example 80, 5-[6-(2,6-Difluoro-3,5-dimethoxyphenyl)-1H-pyrazolo[3,4-d]pyrimidin-3-yl]-2-[2-(dimethylamino)ethyl]isoindolin-1-one]
< 100 nM: all assays above

COc1cc(OC)c(Cl)c(-c2cc3[nH]nc(-c4cnn(C[C@H](C)O)c4)c3cn2)c1Cl [Example 51, (2S)-1-{4-[6-(2,6-Dichloro-3,5-dimethoxyphenyl)-1H-pyrazolo[4,3-c]pyridin-3-yl]-1H-pyrazol-1-yl}propan-2-ol]
< 100 nM: all assays above

COc1cc(OC)c(Cl)c(-c2ncc3c(-c4ccc5c(c4)CC(C(=O)N(C)C)O5)n[nH]c3n2)c1Cl (stereo not drawn) [Example 1, 5-[6-(2,6-Dichloro-3,5-dimethoxyphenyl)-1H-pyrazolo[3,4-d]pyrimidin-3-yl]-N,N-dimethyl-2,3-dihydro-1-benzofuran-2-carboxamide]
< 100 nM: all assays above

COc1cc(OC)c(F)c(-c2ncc3c(-c4ccc5c(c4)CN(C(C)C)C5=O)n[nH]c3n2)c1F [Example 78, 5-[6-(2,6-Difluoro-3,5-dimethoxyphenyl)-1H-pyrazolo[3,4-d]pyrimidin-3-yl]-2-isopropylisoindolin-1-one]
< 100 nM: all assays above

COc1cc(OC)c(F)c(-c2ncc3c(-c4ccc5c(c4)CC(C(=O)N(C)C)O5)n[nH]c3n2)c1F (single isomer, unassigned) [Example 4, 5-[6-(2,6-Difluoro-3,5-dimethoxyphenyl)-1H-pyrazolo[3,4-d]pyrimidin-3-yl]-N,N-dimethyl-2,3-dihydro-1-benzofuran-2-carboxamide]
< 100 nM: all assays above

COc1cc(OC)c(Cl)c(-c2ncc3c(-c4ccc5c(c4)CN(C4CC4)C5=O)n[nH]c3n2)c1Cl [Example 74, 2-Cyclopropyl-5-[6-(2,6-dichloro-3,5-dimethoxyphenyl)-1H-pyrazolo[3,4-d]pyrimidin-3-yl]isoindolin-1-one]
< 100 nM: all assays above

COc1cc(OC)c(F)c(-c2ncc3c(-c4ccc5ncccc5c4)n[nH]c3n2)c1F [Example 94, 6-[6-(2,6-Difluoro-3,5-dimethoxyphenyl)-1H-pyrazolo[3,4-d]pyrimidin-3-yl]quinoline]
< 100 nM: all assays above

COc1cc(OC)c(F)c(-c2ncc3c(-c4ccc5c(c4)CC(C(=O)N4CCN(C)CC4)O5)n[nH]c3n2)c1F (stereo not drawn) [Example 7, 6-(2,6-Difluoro-3,5-dimethoxyphenyl)-3-{2-[(4-methylpiperazin-1-yl)carbonyl]-2,3-dihydro-1-benzofuran-5-yl}-1H-pyrazolo[3,4-d]pyrimidine]
< 100 nM: all assays above

COc1cc(OC)c(F)c(-c2cc3[nH]nc(-c4ccc5c(c4)CN(CCN(C)C)C5=O)c3cn2)c1F [Example 67, 5-[6-(2,6-Difluoro-3,5-dimethoxyphenyl)-1H-pyrazolo[4,3-c]pyridin-3-yl]-2-[2-(dimethylamino)ethyl]isoindolin-1-one]
< 100 nM: all assays above
